Entries after “also recorded” stand apart in the source; their conditions may differ.
Assays:
[1] = target: T1, BID (Mus musculus, UniProt P70444); assay: NMR binding to BID (HSQC/TROSY chemical shifts)
T1 construct: poly-His (N); made in house; host or cells: E. coli BL21
T1 sequence (P70444 1-195): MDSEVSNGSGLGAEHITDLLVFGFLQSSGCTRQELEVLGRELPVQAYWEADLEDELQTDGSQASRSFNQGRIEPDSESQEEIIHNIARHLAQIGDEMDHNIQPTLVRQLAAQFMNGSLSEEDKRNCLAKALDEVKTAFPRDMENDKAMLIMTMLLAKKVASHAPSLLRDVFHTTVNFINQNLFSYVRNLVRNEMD
Description: (§1) Recombinant full length mouse BID was produced from a pET-19b (Novagen) plasmid construct containing the entire nucleotide sequence for BID fused to an N-terminal poly-His tag. Unlabeled BID was expressed in E. coli BL21 in LB media at 37° C., with an induction period of 3-4 hours with 1 mM IPTG. ^15N-labeled BID was similarly produced, with growth occurring in M9 media supplemented with 0.5 g/L ^15NH4Cl. ε-^13C-Met labeled BID was produced in M9 media supplemented with 50 mg/L of ε-^13C-Met at time of induction with IPTG. Following cell lysis, soluble BID was purified over a Hi-Trap chelating column (Amersham, Pharmacia), followed by ion-exchange purification with a MonoQ (Amersham, Pharmacia) column. Final BID samples were dialyzed into a buffer appropriate for the subsequent experiments. tBID was produced by cleavage of purified BID with caspase-8, as known in the art.
For all NMR experiments, BID was exchanged into 50 mM phosphate buffer at pH 7.5 and measurements were performed at 30° C. 2D [^15N,^1H]-TROSY spectra for BID were measured with 0.5 mM samples of ^15N-labeled BID. 2D [^13C,^1H]-HSQC spectra were measured with 0.2 mM samples of ε-^13C-Met labeled BID. 2D [^1H,^1H]-NOESY spectra were acquired with small molecules at a concentration of 0.9 mM in the presence of 10 μM BID. T1ρ competition experiments (200 msec spin-lock duration) were performed on either 100 μM BI-2A7 or a mixture of 100 μM BI-2A7 and 10 μM BI-6C9, in the presence and absence of 10 μM BID. All experiments were performed with either a 500 MHz or 600 MHz Bruker Avance spectrometer, both equipped with TXI probes. Typical parameters for the 2D [^15N,^1H]-TROSY spectra included ^1H and ^15N π/2 pulse lengths of 11 μsec and 40 μsec, respectively; ^1H and ^15N sweep widths of 12 ppm and 32 ppm, respectively; 16 scans and 256 indirect acquisition points and a recycle delay of 1 sec. For the 2D [^13C,^1H]-HSQC typical parameters included ^1H and ^13C π/2 pulse lengths of 10 μsec and 13 μsec, respectively; ^1H and ^13C sweep widths of 12 ppm and 5 ppm, respectively; 128 scans and 80 indirect acquisition points and a recycle delay of 1 sec. […]
To examine the binding affinity of some compounds of the invention to BID, 2D [^13C,^1H]-HSQC spectra in presence of ^13C methionine-labeled protein were measured, as at least one methionine is present in the hydrophobic groove of BID (FIG. 4B). […]
Monitoring the variation of cross-peak intensity upon addition of increasing amounts of compound II, allowed to estimate its dissociation constant KD. The arrow on FIG. 5C indicates the peak that was monitored to determine the Kd for compound II. […]

[2] = target: BCL-XL (Homo sapiens, UniProt Q07817); assay: NMR-binding assay against BCL-XL
Chain of BCL-XL (Q07817 whole entry, species assumed): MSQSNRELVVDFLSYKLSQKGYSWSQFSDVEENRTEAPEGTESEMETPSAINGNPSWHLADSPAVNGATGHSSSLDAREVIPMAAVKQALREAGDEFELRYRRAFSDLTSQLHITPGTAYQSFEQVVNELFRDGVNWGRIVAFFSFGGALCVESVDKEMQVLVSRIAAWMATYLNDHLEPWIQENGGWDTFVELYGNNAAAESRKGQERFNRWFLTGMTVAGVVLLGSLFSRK

[3] = target: T2, tBID (Mus musculus, UniProt P70444); assay: NMR chemical shift mapping with tBID (BID cleaved with caspase-8); format: binding; conditions: 15N-BID after cleavage with caspase-8
T2 construct: tBID was produced by cleavage of purified BID with caspase-8, as known in the art; made in house; host or cells: E. coli BL21 (BID), then cleaved in vitro with caspase-8
T2 sequence (P70444 60-195 limits assumed): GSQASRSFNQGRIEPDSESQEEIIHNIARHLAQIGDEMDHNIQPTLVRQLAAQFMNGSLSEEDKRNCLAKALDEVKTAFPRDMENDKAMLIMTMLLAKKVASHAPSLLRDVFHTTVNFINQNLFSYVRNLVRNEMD
T2 sequence (P70444 1-59 partner limits assumed): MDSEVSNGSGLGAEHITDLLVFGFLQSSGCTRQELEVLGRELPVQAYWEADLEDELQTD
Description: as §1
For all NMR experiments, BID was exchanged into 50 mM phosphate buffer at pH 7.5 and measurements were performed at 30° C. 2D [^15N,^1H]-TROSY spectra for BID were measured with 0.5 mM samples of ^15N-labeled BID. 2D [^13C,^1H]-HSQC spectra were measured with 0.2 mM samples of ε-^13C-Met labeled BID. 2D [^1H,^1H]-NOESY spectra were acquired with small molecules at a concentration of 0.9 mM in the presence of 10 μM BID. […]

Row | SMILES | Kd ([1]; 2D [13C,1H]-HSQC, 13C methionine-labeled BID, cross-peak intensity upon titration, read-out: dissociation constant KD) | binding to BCL-XL [2] | binding to tBID compared with full-length BID [3] | specific binding to BID, affinity range ([1]; 2D [15N-1H]-TROSY chemical shift perturbations) | binding to BID ([1]; NMR)
1 | COc1ccc(S(=O)(=O)NCCCC(=O)Nc2ccc(Sc3ccc(N)cc3)cc2)cc1 [Compound II, N-[4-(4-amino-phenylsulfanyl)-phenyl]-4-(4-methoxy-benzenesulfonylamino)-butyramide] | ~20 µM | does not bind appreciably; also recorded: did not show appreciable binding | binding even better | – | –
2 | Nc1ccc(Sc2ccc(NC(=O)CNC(=O)c3ccc(O)cc3O)cc2)cc1 [Compound I, N-((4-(4-aminophenylthio)phenylcarbamoyl)methyl)-2,4-dihydroxybenzamide] | – | did not show appreciable binding | higher affinity | low micromolar range | strong binder

From patent US7741521B2, “Inhibition of bid-induced cell-death using small organic molecules” (The Burnham Institute, priority 2004, dated 2010)
